In article PMC9909341, “TLQP-21 is a low potency partial C3aR activator on human primary macrophages” (Frontiers in Immunology, 2023):
pEC50: −log10 of the molar value.

Tests used:
[1] = tested on: CHO-K1 cells (endogenous C3aR); assay: phospho-ERK1/2 assay in non-transfected CHO-K1 cells; format: cell-based, Chinese hamster
Procedure: (§1) Cell lines for this study were cultured as previously described ([20]). Non-transfected CHO-K1 cells or CHO cells stably expressing the human C3aR (CHO-C3aR; Product # ES-730-C, PerkinElmer, Melbourne, Australia) were maintained in Ham’s F12 medium containing 10% foetal bovine serum (FBS), 100 IU/ml penicillin and 100 μg/ml streptomycin, with additional 400 μg/ml G418 (In vivoGen, San Diego, USA) added for CHO-C3aR cell culture. HEK293 cells were maintained in DMEM medium containing 10% FBS, 100 IU/ml penicillin and 100 μg/ml streptomycin. All cell lines were maintained in T175 flasks (37°C, 5% CO2) and subcultured at 80-90% confluency using 0.05% trypsin-EDTA in DPBS.
Ligand-induced ERK1/2 phosphorylation was assessed using the AlphaLISA Surefire Ultra p-ERK1/2 (Thr202/Tyr204) kit (PerkinElmer, Melbourne, Australia) following the manufacturer’s protocol as previously described ([18], [20], [22]). Briefly, CHO-K1, CHO-C3aR, CHO-C5aR1, HMDMs (50,000/well) or BMDMs (90,000/well) were seeded in tissue culture-treated 96-well plates (Corning, Corning, USA) for 24 h and serum-starved overnight. […] On a Tecan Spark 20M (Tecan, Männedorf, Switzerland), the plate was measured using standard AlphaLISA settings.
All experiments were conducted in triplicates and repeated on three separate occasions unless otherwise specified. Data was analysed using GraphPad software (Prism 9.1). Data from each individual repeat was normalised accordingly (as specified in the figure legends) before being combined and expressed as mean ± standard error of the mean (S.E.M.) unless otherwise described. For all dose-response studies, logarithmic concentration-response curves were plotted using combined data and analysed to determine the respective potency values. […]
Figure 1 hTLQP-2 and mTLQP-21 activate ERK signalling in CHO-K1 and CHO-C3aR cells. hTLQP-21, mTLQP-21 and plasma-derived human C3a were tested in (A) non-transfected CHO-K1 or (B) CHO cells stably expressing human C3aR. […] The phospho-ERK1/2 content in the lysate was measured and expressed as fold-baseline before being combined. […]

[2] = tested on: HMDM (endogenous human C3aR); format: cell-based; conditions: for pEC50: primary human macrophages, 50,000/well, AlphaLISA p-ERK1/2, n = 4 donors, read-out: EC50 (pERK1/2), HMDM
Source text: HMDMs were generated and cultured as previously described ([20]), with experiments approved by The University of Queensland Human Research Ethics Committee. Briefly, human buffy coat blood from anonymous healthy donors was obtained through the Australian Red Cross Blood Service (Brisbane, Australia). Human CD14+ monocytes were isolated from blood using Lymphoprep density centrifugation (STEMCELL, Melbourne, Australia) followed by CD14+ MACS magnetic bead separation (Miltenyi Biotec, Sydney, Australia). The isolated monocytes were differentiated for 7 days in Iscove’s Modified Dulbecco’s Medium supplemented with 10% FBS, 100 IU/ml penicillin, 100 μg/ml streptomycin and 15 ng/ml recombinant human macrophage colony stimulating factor (BioLegend, San Diego, USA) on 10 mm square dishes (Bio-strategy, Brisbane, Australia). Non-adherent cells were removed by washing with DPBS, and the adherent differentiated HMDMs were harvested by gentle scraping.
(§2) Ligand-induced ERK1/2 phosphorylation was assessed using the AlphaLISA Surefire Ultra p-ERK1/2 (Thr202/Tyr204) kit (PerkinElmer, Melbourne, Australia) following the manufacturer’s protocol as previously described ([18], [20], [22]). Briefly, CHO-K1, CHO-C3aR, CHO-C5aR1, HMDMs (50,000/well) or BMDMs (90,000/well) were seeded in tissue culture-treated 96-well plates (Corning, Corning, USA) for 24 h and serum-starved overnight. All ligand dilutions were prepared in serum-free medium (SFM) containing 0.1% BSA. For inhibition assays, cells were pre-treated with the following ligands (5 µM SB290157, or respective concentrations of hC3a, mC3a, hC5a, hTLQP-21, and mTLQP-21) or the solvent-only control for 30 min before agonist (hC3a, hTLQP-21 and mTLQP-21) addition. The concentration and identity of the ligands are described in detail in the figure legends. For stimulation, cells were treated with ligands at the indicated concentrations for 10 min at RT and then immediately lysed using AlphaLISA lysis buffer on a microplate shaker (450 rpm, 10 min). For the detection of phospho-ERK1/2 content, cell lysate (5 μL/well) was transferred to a 384-well ProxiPlate (PerkinElmer, Melbourne, Australia) and added to the donor and acceptor reaction mix (2.5 μL/well, respectively), followed by a 2-h incubation at RT in the dark. On a Tecan Spark 20M (Tecan, Männedorf, Switzerland), the plate was measured using standard AlphaLISA settings.
(§3) All experiments were conducted in triplicates and repeated on three separate occasions unless otherwise specified. Data was analysed using GraphPad software (Prism 9.1). Data from each individual repeat was normalised accordingly (as specified in the figure legends) before being combined and expressed as mean ± standard error of the mean (S.E.M.) unless otherwise described. For all dose-response studies, logarithmic concentration-response curves were plotted using combined data and analysed to determine the respective potency values. Statistical analysis was performed using two-way ANOVA with Dunnett’s post hoc analysis. Donor-matched comparisons were made for HMDM experiments. Differences were deemed significant when p < 0.05.
Figure 3 Agonistic and antagonistic activities of hTLQP-21 and mTLQP-21 in human monocyte-derived macrophages. Serum-starved HMDMs (50,000/well) were (A) stimulated with medium or respective ligands at the indicated concentrations for 10 min and then lysed, or (B) pre-treated with 5 µM SB290157 for 30 min prior to stimulation. (C) HMDMs were pre-treated with 10 μM hTLQP-21 or mTLQP-21 for 30 min before being stimulated with respective concentrations of human C3a. (D) HMDMs were pre-treated with 10 nM hC3a, 10 μM hTLQP-21 or mTLQP-21 for 30 min before being stimulated with the same concentrations of the above ligands for 10 min and then lysed. (E) HMDMs were pre-treated with 10 μM hTLQP-21 or mTLQP-21 for 30 min before being stimulated with respective concentrations of human C5a for 10 min and then lysed. […]

human C3aR = biological target: T1, human C3aR (Homo sapiens, UniProt Q16581); assay: phospho-ERK1/2 assay in CHO-C3aR cells; format: cell-based; conditions: n = 3-4; for pEC50: CHO cells stably expressing human C3aR, serum-starved, AlphaLISA p-ERK1/2, combined data, read-out: EC50 (pERK1/2), CHO-C3aR
T1 sequence (Q16581 1-482): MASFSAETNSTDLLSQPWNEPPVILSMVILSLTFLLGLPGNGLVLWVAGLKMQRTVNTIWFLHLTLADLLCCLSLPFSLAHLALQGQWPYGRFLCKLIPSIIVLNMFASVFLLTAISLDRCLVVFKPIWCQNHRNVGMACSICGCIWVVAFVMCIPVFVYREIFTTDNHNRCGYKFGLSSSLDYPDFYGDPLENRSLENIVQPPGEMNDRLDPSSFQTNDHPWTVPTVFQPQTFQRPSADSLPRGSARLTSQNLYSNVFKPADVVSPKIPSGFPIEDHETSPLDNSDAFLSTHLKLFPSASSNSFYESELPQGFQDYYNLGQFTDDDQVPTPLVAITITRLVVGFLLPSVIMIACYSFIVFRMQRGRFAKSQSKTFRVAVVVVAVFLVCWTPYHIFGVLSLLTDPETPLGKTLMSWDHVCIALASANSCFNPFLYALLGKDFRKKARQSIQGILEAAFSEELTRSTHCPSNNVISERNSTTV
Procedure: as §1, §2, §3
Figure 1 hTLQP-2 and mTLQP-21 activate ERK signalling in CHO-K1 and CHO-C3aR cells. hTLQP-21, mTLQP-21 and plasma-derived human C3a were tested in (A) non-transfected CHO-K1 or (B) CHO cells stably expressing human C3aR. CHO cells were serum-starved overnight and then stimulated with various ligands for 10 min before being lysed. The phospho-ERK1/2 content in the lysate was measured and expressed as fold-baseline before being combined. The maximum relative pERK1/2 activity induced by each ligand is shown in (C). Data represent mean ± S.E.M. of triplicate measurements from 3-4 independent experiments (n = 3-4). Two-way ANOVA with Dunnett’s post hoc analysis. *P < 0.05, ***P < 0.001, ****P < 0.0001. Ligand treated versus medium treated cells for each cell line.

Substance | ERK1/2 phosphorylation, CHO-K1 ([1]; 10 min stimulation at RT, n = 3-4) | pEC50 ([2]; 10 min stimulation at RT) | pEC50 (human C3aR; 10 min stimulation at RT) | maximum relative pERK1/2 activity, CHO-K1 ([1]; 10 min, Figure 1C, n = 3-4) [fold baseline] | relative efficacy of ERK signalling in CHO-K1 versus CHO-C3aR ([1]; fold lower than in CHO-C3aR cells) [fold] | logEC50 ± SE (pERK1/2), HMDM ([2]; HMDM, 10 min stimulation at RT, n = 3-4) | % C3a activity ± SE, HMDM ([2]; relative to hC3a, n = 3-4) [%] | maximum relative pERK1/2 activity, CHO-C3aR (human C3aR; 10 min, Figure 1C) [fold baseline] | logEC50 ± SE (pERK1/2), CHO-C3aR (human C3aR; CHO-C3aR, 10 min stimulation at RT) | % C3a activity ± SE, CHO-C3aR (human C3aR; efficacy relative to hC3a, fold baseline normalised) [%]
hC3a: purified (plasma-derived) human C3a, purchased from Merck | significantly triggered ERK1/2 phosphorylation in CHO-K1 cells | 9.96 | 9.82 | – | – | – | – | – | – | –
C3a: Table 1 label: human C3a in CHO-C3aR and HMDM, recombinant mouse C3a in BMDM | – | 9.96 | 9.82 | 2.7 | 2.6 | -9.9 ± 0.1 | 100 ± 6.2 | 7.3 | -9.8 ± 0.1 | 100 ± 2.8
